43 compounds from patent US10858360B2, “Tricyclic gyrase inhibitors” (priority 2011, dated 2020) can be followed below.

The subject of assay [1] is E. coli ATCC 25922. The assay is described as follows: MIC, E. coli ATCC 25922. Type of assay: cell-based. The following applies: Alamar Blue read after overnight incubation at 35° C.; for MIC: Escherichia coli, ATCC25922, E. coli. For orientation: Alamar Blue is a resazurin reagent that responds to reducing activity.
In assay [2] the test system is S. aureus ATCC 13709. Put plainly: MIC, S. aureus ATCC 13709 (Alamar Blue broth microdilution). Type of assay: cell-based. The following applies: Alamar Blue read after overnight incubation at 35° C.; for MIC: Staphylococcus aureus, ATCC13709, S. aureus.

≈ marks a conversion by molar mass, not a printed value.

As for `COc1cccc2c1[nH]c1nc(Oc3cncc(C#N)c3)nc(N3CC4C(N)C4C3)c12` (centres unmarked) [2.15], the “MIC Ec” value in assay [1] (E. coli) was greater than 32 µg/mL. In assay [2] (S. aureus), the “MIC Sa” value worked out at 1 µg/mL (≈ 2.42 µM).
Consider `Cc1ncc(Oc2nc(N3CC4CC3C[C@@H]4N)c3c(n2)[nH]c2c(N)cc(F)cc23)cn1` (some centres unmarked) [2.160], for which the MIC was determined as 16 µg/mL (≈ 38.1 µM) in assay [1] and 8 µg/mL (≈ 19 µM) in assay [2].
Turning to `CNc1cccc2c1[nH]c1nc(Oc3cncnc3)nc(N3CC4CC4(N)C3)c12` (centres unmarked) [3.1], the MIC was 4 µg/mL (≈ 10.3 µM) in assay [1] and 1 µg/mL (≈ 2.57 µM) in assay [2].
Turning to `CNc1cccc2c1[nH]c1nc(Oc3cnc(OC)c(OC)c3)nc(N3CC[C@@H](N)C3)c12` [3.2], the MIC in assay [1] came to 16 µg/mL (≈ 36.7 µM); in assay [2] it was 4 µg/mL (≈ 9.19 µM).
On the same counts, the results for `CNc1cccc2c1[nH]c1nc(Oc3cncc(C#N)c3)nc(N3CC[C@@H](N)C3)c12` [3.3] are 1 µg/mL (≈ 2.5 µM) and 0.5 µg/mL (≈ 1.25 µM).
On the same counts, the results for `CNc1cccc2c1[nH]c1nc(Oc3cncnc3)nc(N3CC[C@@H](N)C3)c12` [3.4] are no more than 0.5 µg/mL and 0.5 µg/mL (≈ 1.33 µM).
As for `CNc1cccc2c1[nH]c1nc(Oc3cnc(C)nc3)nc(N3CC[C@@H](N)C3)c12` [3.5], the MIC in assay [1] was no more than 0.5 µg/mL; in assay [2], 0.25 µg/mL (≈ 0.64 µM).
Consider `CNc1cccc2c1[nH]c1nc(Oc3cncc(F)c3)nc(N3CC[C@@H](N)C3)c12` [3.6], for which the MIC came to 1 µg/mL (≈ 2.54 µM) in assay [1] and 0.5 µg/mL (≈ 1.27 µM) in assay [2].
On the same counts, the results for `CNc1cccc2c1[nH]c1nc(Oc3cncc(F)c3)nc(N3CC4CNC4C3)c12` (centres unmarked) [3.7] are 4 µg/mL (≈ 9.87 µM) and 1 µg/mL (≈ 2.47 µM).
On the same counts, the results for `CNc1cccc2c1[nH]c1nc(Oc3cncnc3)nc(N3CC(N)C(O)C3)c12` (centres unmarked) [3.8] are greater than 64 µg/mL and 16 µg/mL (≈ 40.8 µM).
As for `CNc1cccc2c1[nH]c1nc(Oc3cncnc3)nc(-c3cn[nH]c3)c12` [3.9], the MIC in assay [1] was 32 µg/mL (≈ 89.3 µM); in assay [2], 2 µg/mL (≈ 5.58 µM).
As for `CNc1cccc2c1[nH]c1nc(Oc3cnc(C)nc3)nc(N3CC[C@@H](NCCC#N)C3)c12` [3.10], the results for the MIC in assay [1] and in assay [2] were greater than 64 µg/mL and 32 µg/mL (≈ 72.2 µM), respectively.
As for `CNc1cccc2c1[nH]c1nc(Oc3cnc(C)nc3)nc(N3CC4C(C3)C4NCCC#N)c12` (centres unmarked) [3.11], the MIC in assay [1] is 2 µg/mL (≈ 4.39 µM); in assay [2] it was no more than 0.5 µg/mL.
Take `CNc1cccc2c1[nH]c1nc(Oc3cncnc3)nc(N3C[C@H](NCC4CC4)C4(CC4)C3)c12` [3.12]: the MIC in assay [1] is 8 µg/mL (≈ 17.5 µM); in assay [2], 1 µg/mL (≈ 2.19 µM).
Regarding `CNc1cccc2c1[nH]c1nc(Oc3cncnc3)nc(N3CC4C(C3)C4NCC3CC3)c12` (centres unmarked) [3.13], the MIC is 1 µg/mL (≈ 2.26 µM) in assay [1] and no more than 0.5 µg/mL in assay [2].
`CNc1cccc2c1[nH]c1nc(Oc3cnc(C)nc3)nc(N3CC4C(C3)C4NCC3CC3)c12` (centres unmarked) [3.14]: the minimum inhibitory concentration (MIC) in assay [1] is 2 µg/mL (≈ 4.38 µM); in assay [2], no more than 0.5 µg/mL.
Take `CNc1cccc2c1[nH]c1nc(Oc3cncnc3)nc(N3CC4CCC(N)C4C3)c12` (centres unmarked) [3.15]: the MIC is 8 µg/mL (≈ 19.2 µM) in assay [1] and 1 µg/mL (≈ 2.4 µM) in assay [2].
Turning to `CNc1cccc2c1[nH]c1nc(Oc3cncnc3)nc(N3CCC[C@@H](N)C3)c12` [3.16], the MIC in assay [1] and in assay [2] was 4 µg/mL (≈ 10.2 µM) in each case.
With `CNc1cccc2c1[nH]c1nc(Oc3cncnc3)nc(N3CCC(C(N)=O)C3)c12` (centres unmarked) [3.17], the results for the MIC in assay [1] and in assay [2] were greater than 16 µg/mL and 2 µg/mL (≈ 4.95 µM), respectively.
On the same counts, the results for `CNc1cccc2c1[nH]c1nc(Oc3cnc(C)nc3)nc(N3CC4C(C3)C4NC(=O)CN)c12` (centres unmarked) [3.18] are greater than 16 µg/mL and 4 µg/mL (≈ 8.7 µM).
In the case of `CNc1cccc2c1[nH]c1nc(Oc3cncc(C(N)=O)c3)nc(N3CC4C(N)C4C3)c12` (centres unmarked) [3.19], the MIC turned out to be 32 µg/mL (≈ 74.3 µM) in assay [1] and 8 µg/mL (≈ 18.6 µM) in assay [2].
On the same counts, the results for `CNc1cccc2c1[nH]c1nc(Oc3cncc(C(=O)O)c3)nc(N3CC4C(N)C4C3)c12` (centres unmarked) [3.20] are greater than 8 µg/mL and greater than 8 µg/mL.
On to `CNc1cccc2c1[nH]c1nc(Oc3ccc(C(=O)OC)nc3)nc(N3CC4C(N)C4C3)c12` (centres unmarked) [3.21], for which the MIC in assay [1] is 1 µg/mL (≈ 2.24 µM); in assay [2] it was no more than 0.5 µg/mL.
As to `CNc1cccc2c1[nH]c1nc(Oc3ccc(C(=O)O)nc3)nc(N3CC4C(N)C4C3)c12` (centres unmarked) [3.22], the MIC in assay [1] was determined as 64 µg/mL (≈ 148 µM); in assay [2], 16 µg/mL (≈ 37.1 µM).
On the same counts, the results for `CNc1cccc2c1[nH]c1nc(Oc3cnc4ccoc4c3)nc(N3CC4C(N)C4C3)c12` (centres unmarked) [3.23] are 2 µg/mL (≈ 4.68 µM) and no more than 0.5 µg/mL.
Regarding `CNc1cccc2c1[nH]c1nc(Oc3cncc(-c4nnn(C)n4)c3)nc(N3CC4C(N)C4C3)c12` (centres unmarked) [3.24], the MIC in assay [1] was 8 µg/mL (≈ 17 µM); in assay [2], 2 µg/mL (≈ 4.26 µM).
Consider `CNc1cccc2c1[nH]c1nc(Oc3cnc(N4CCOCC4)nc3)nc(N3CC4C(N)C4C3)c12` (centres unmarked) [3.26], for which the MIC in assay [1] and in assay [2] was greater than 16 µg/mL each time.
Take `CNc1cccc2c1[nH]c1nc(Oc3cncc(C#N)c3)nc(N3CC4C(N)C4C3)c12` (centres unmarked) [3.27]: the MIC worked out at 4 µg/mL (≈ 9.7 µM) in assay [1] and 1 µg/mL (≈ 2.42 µM) in assay [2].
For `CNc1cccc2c1[nH]c1nc(Oc3cncnc3)nc(N3CC4C(N)C4C3)c12` (centres unmarked) [3.28], the MIC was 2 µg/mL (≈ 5.15 µM) in assay [1] and 1 µg/mL (≈ 2.57 µM) in assay [2].
In the case of `CNc1cccc2c1[nH]c1nc(Oc3cnc(C)nc3)nc(N3CC4C(N)C4C3)c12` (centres unmarked) [3.29], the MIC in assay [1] and in assay [2] was no more than 0.5 µg/mL throughout.
`CNc1cccc2c1[nH]c1nc(Oc3ccc[n+]([O-])c3)nc(N3CC4C(N)C4C3)c12` (centres unmarked) [3.30]: the MIC in assay [1] and in assay [2] was 16 µg/mL (≈ 39.7 µM) in each case.
Consider `CNc1cccc2c1[nH]c1nc(Oc3ccc4nccnc4c3)nc(N3CC4C(N)C4C3)c12` (centres unmarked) [3.31], for which the MIC in assay [1] turned out to be 8 µg/mL (≈ 18.2 µM); in assay [2], 2 µg/mL (≈ 4.56 µM).
As for `CNc1cccc2c1[nH]c1nc(Oc3cnc(N)nc3)nc(N3CC4C(N)C4C3)c12` (centres unmarked) [3.32], the MIC in assay [1] was 2 µg/mL (≈ 4.96 µM); in assay [2] it was no more than 0.5 µg/mL.
For the compound `CNc1cccc2c1[nH]c1nc(Oc3cncc(F)c3)nc(N3CC4C(N)C4C3)c12` (centres unmarked) [3.33], the results for the MIC in assay [1] and in assay [2] were 1 µg/mL (≈ 2.47 µM) and no more than 0.5 µg/mL, respectively.
In the case of `CNc1cccc2c1[nH]c1nc(Oc3cnc4cccnc4c3)nc(N3CC4C(N)C4C3)c12` (centres unmarked) [3.34], the MIC in assay [1] and in assay [2] was no more than 0.5 µg/mL each time.
With `CNc1cccc2c1[nH]c1nc(Oc3cncc(OC)c3)nc(N3CC4C(N)C4C3)c12` (centres unmarked) [3.35], the MIC in assay [1] is 1 µg/mL (≈ 2.4 µM); in assay [2] it was no more than 0.5 µg/mL.
Turning to `CNc1cccc2c1[nH]c1nc(Oc3cnc4c(c3)ncn4C)nc(N3CC4C(N)C4C3)c12` (centres unmarked) [3.36], the MIC is 2 µg/mL (≈ 4.53 µM) in assay [1] and no more than 0.5 µg/mL in assay [2].
On the same counts, the results for `CNc1cccc2c1[nH]c1nc(Oc3cncnc3)nc(Oc3cncnc3)c12` [3.37] are greater than 64 µg/mL and 2 µg/mL (≈ 5.18 µM).
`CNc1cccc2c1[nH]c1nc(Oc3cnc(C)nc3)nc(Oc3cnc(C)nc3)c12` [3.38]: the figures for the MIC in assay [1] and in assay [2] were greater than 32 µg/mL and 1 µg/mL (≈ 2.41 µM), respectively.
With `CNc1cccc2c1[nH]c1nc(Oc3ccc[n+]([O-])c3)nc(Oc3cnc(C)nc3)c12` [3.39], the MIC in assay [1] is 64 µg/mL (≈ 154 µM); in assay [2] it was 2 µg/mL (≈ 4.81 µM).
On the same counts, the results for `CNc1cccc2c1[nH]c1nc(Oc3cncc(C#N)c3)nc(N3CCC4(CC4N)C3)c12` (centres unmarked) [3.40] are 1 µg/mL (≈ 2.34 µM) and no more than 0.5 µg/mL.
As for `CNc1cccc2c1[nH]c1nc(Oc3cncnc3)nc(N3CCC4(CC4N)C3)c12` (centres unmarked) [3.41], the MIC in assay [1] and in assay [2] was no more than 0.5 µg/mL throughout.
`CNc1cccc2c1[nH]c1nc(Oc3cnc(C)nc3)nc(N3CCC4(CC4N)C3)c12` (centres unmarked) [3.42]: the MIC in assay [1] was 2 µg/mL (≈ 4.8 µM); in assay [2] it was no more than 0.5 µg/mL.

The term MIC denotes the smallest concentration in the dilution series that meets the test's criterion for growth inhibition.
